For data set [1], the system named is CGS 21680-induced catalepsy. Nature of the data set: Activity on CGS 21680-induced catalepsy. The format is in vivo, mouse. Particulars: 10 mg/kg oral; for inhibition in vivo at 10 mg/kg: Mus musculus, 1 h, percentage reduction of total score vs control group, read-out: Remission ratio (%); for Total score: total catalepsy score of 10 mice (maximum 50 points), 1 hour after administration. Here is the method:
This test was carried out using 10 animals per group of male ddY mice of 5 week age (22 to 25 g in body weight, Japan SLC). […] One hour after the administration of the test compound, only forelimbs or only hindlimbs of each animal were laid on a vertically arranged stand made of acryl, having a size of 4.5 cm in height and 1.0 cm in width, to measure catalepsy symptoms. All of the test compounds were administered orally in a dose of 10 mg/kg.
The effect was judged by total catalepsy scores of 10 animals in one group (the maximum score is 50 points). When total score was 40 points or less, the activity of the compounds was judged positive. The number of animals showing remission of catalepsy was expressed by the number of cases in which the catalepsy score was 4 points or less in 10 cases. The catalepsy remission ratio was expressed as the percentage reduction of the total score in the test compound-administered group to the total score in the control group.

In data set [2] the test system is reserpine-induced catalepsy. Nature of the data set: Activity on reserpine-induced catalepsy. The format is in vivo, mouse. Particulars: oral; for Remission ratio (%): percentage reduction of total score vs control group; for Total score: total catalepsy score of 10 mice (maximum 50 points), reserpine 5 mg/kg s.c., 1 hour after administration. The procedure:
This test was carried out using 10 animals per group of male ddY mice of 5 week age (22 to 24 g in body weight, Japan SLC). […] Reserpine (5 mg/kg: apoplon, Daiichi Pharmaceutical Co., Ltd.; diluted with distilled water) was subcutaneously administered, and catalepsy-inducing activity was observed from 18 hours after the administration. […] Each test compound was suspended in distilled water for injection containing 0.5% MC (manufactured by Otsuka Pharmaceutical Co., Ltd.) The suspension containing each of the test compounds or a solution containing no test compound (distilled water for injection containing 0.5% MC (manufactured by Otsuka Pharmaceutical Co., Ltd.); control) was orally administered (0.1 mL per 10 g mouse body weight) and, one hour after the administration of test compound, only forelimbs or only hindlimbs of each animal were laid on a stand having a size of 4.5 cm in height and 1.0 cm in width, to measure catalepsy symptoms.
The effect was judged by total catalepsy scores of 10 animals in one group (the maximum is 50 points). When the total score was 40 points or less, the activity of the test compound was judged positive. The number of animals showing remission of catalepsy was expressed by the number of cases in which the catalepsy score was 4 points or less in 10 cases. The catalepsy remission ratio was expressed as the percentage reduction of the total score in the test compound-administered group to the total score in the control group.

The target of a further data set is T1, Rat A2A receptor (Rattus norvegicus, UniProt P30543).
T1 construct: from tissue; host or cells: rat corpus striatum membrane preparation
Nature of the data set: Adenosine A2A receptor binding test (3H-CGS 21680 binding). The conditions noted are these: 10^−6 mol/L test compound, rat corpus striatum. The procedure:
The final precipitate was suspended in 50 mmol/L Tris-HCl buffer (containing 10 mmol/L magnesium chloride and 0.02 unit/mg tissue of adenosine deaminase (manufactured by Sigma Co.)) by adding the buffer to the final precipitate so as to give a tissue concentration of 5 mg (wet weight)/mL.
Inhibition ratio (%)={1−(amount of the binding in the presence of the test compound−amount of the non-specific binding)/(amount of the total binding−amount of the non-specific binding)}×100

T1 sequence (P30543 whole entry): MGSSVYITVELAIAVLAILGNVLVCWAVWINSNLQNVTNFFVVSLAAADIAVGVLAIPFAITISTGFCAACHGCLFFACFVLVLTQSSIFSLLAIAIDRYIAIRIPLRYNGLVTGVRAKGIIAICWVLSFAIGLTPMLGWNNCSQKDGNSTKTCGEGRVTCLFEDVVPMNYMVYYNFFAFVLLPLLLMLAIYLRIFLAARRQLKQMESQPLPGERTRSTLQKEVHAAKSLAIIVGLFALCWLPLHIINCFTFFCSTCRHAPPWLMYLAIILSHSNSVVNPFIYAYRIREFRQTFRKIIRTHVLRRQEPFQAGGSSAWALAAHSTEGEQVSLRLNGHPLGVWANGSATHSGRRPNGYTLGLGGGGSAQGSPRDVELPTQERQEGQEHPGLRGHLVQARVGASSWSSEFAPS

For the compound `Nc1nc(N2CCN(CC3(O)CC3)CC2)cc2nc(-c3ccco3)nn12` [Compound 5, 5-Amino-2-(2-furyl)-7-(4-(1-hydroxycyclopropylmethyl)piperazinyl)[1,2,4]triazolo[1,5-c]pyrimidine], in data set [1], the inhibition in vivo at 10 mg/kg came to 90% and the Total score turned out to be 5. For the same compound, in data set [2], the “Remission ratio (%)” value is given as 76% and the Total score was 12.

For the compound `Cc1cc(CN2CCN(c3cc4nc(-c5ccco5)nn4c(N)n3)CC2C)no1` (stereo not shown) [Compound 22, 5-Amino-2-(2-furyl)-7-(3-methyl-4-(5-methylisoxazol-3-ylmethyl)piperazinyl)[1,2,4]triazolo[1,5-c]pyrimidine], the “Rat A2A receptor inhibition ratio (%)” value on Rat A2A receptor was found to be 84%. Also, in data set [1], the inhibition in vivo at 10 mg/kg was 98% and the Total score came to 1. Moreover, in data set [2], the “Remission ratio (%)” value was found to be 74% and the Total score stood at 13.

For `Nc1nc(N2CCN(Cc3cn4ccccc4n3)CC2)cc2nc(-c3ccco3)nn12` [Compound 15, 5-Amino-2-(2-furyl)-7-(4-(imidazo[1,2-a]pyridin-2-ylmethyl)piperazinyl)[1,2,4]triazolo[1,5-c]pyrimidine], the melting point – broadly, the temperature of the solid-liquid transition – lay in the range of 220 to 221 °C. Besides, the “Rat A2A receptor inhibition ratio (%)” value at Rat A2A receptor is on record as 92%.

In the case of `CCC(O)(CC)CCN1CCN(c2cc3nc(-c4ccco4)nn3c(N)n2)CC1` [Compound 10, 5-Amino-2-(2-furyl)-7-(4-(3-ethyl-3-hydroxypentyl)piperazinyl)[1,2,4]triazolo[1,5-c]pyrimidine], the “Rat A2A receptor inhibition ratio (%)” value on Rat A2A receptor was 87%. In data set [1], the inhibition in vivo at 10 mg/kg was 78% and the Total score is 11.

In the case of `Nc1nc(N2CCN(Cc3ccc4c(c3)NC(=O)CO4)CC2)cc2nc(-c3ccco3)nn12` [Compound 27, 5-Amino-2-(2-furyl)-7-(4-(3-oxo-3,4-dihydro-2H-benzo[1,4]oxazin-6-ylmethyl)piperazinyl)[1,2,4]triazolo[1,5-c]pyrimidine], at Rat A2A receptor, the “Rat A2A receptor inhibition ratio (%)” value came out at 96%. In data set [1], the inhibition in vivo at 10 mg/kg was 92% and the Total score is 4.

Regarding `CC(C)(O)CCN1CCN(c2cc3nc(-c4ccco4)nn3c(N)n2)CC1` [Compound 7, 5-Amino-2-(2-furyl)-7-(4-(3-hydroxy-3-methylbutyl)piperazinyl)[1,2,4]triazolo[1,5-c]pyrimidine], the values for the Total score in data set [1] and in data set [2] were 8 and 23, respectively.

In turn, `CCC(C)(O)CCN1CCN(c2cc3nc(-c4ccco4)nn3c(N)n2)CC1` (stereo not shown) [Compound 8, 5-Amino-2-(2-furyl)-7-(4-(3-hydroxy-3-methylpentyl)piperazinyl)[1,2,4]triazolo[1,5-c]pyrimidine] returned a melting point of 196 to 197 °C. In addition, the “Rat A2A receptor inhibition ratio (%)” value on Rat A2A receptor is listed as 84%.

Take `CC(C)(O)CCCN1CCN(c2cc3nc(-c4ccco4)nn3c(N)n2)CC1` [Compound 13, 5-Amino-2-(2-furyl)-7-(4-(4-hydroxy-4-methylpentyl)piperazinyl)[1,2,4]triazolo[1,5-c]pyrimidine]: in data set [1], the inhibition in vivo at 10 mg/kg was 80% and the Total score worked out at 10.

`Nc1nc(N2CCN(Cc3cn4ccncc4n3)CC2)cc2nc(-c3ccco3)nn12` [Compound 16, 5-Amino-2-(2-furyl)-7-(4-(imidazo[1,2-a]pyrazin-2-ylmethyl)piperazinyl)[1,2,4]triazolo[1,5-c]pyrimidine] gave a melting point of 242 to 244 °C. The “Rat A2A receptor inhibition ratio (%)” value on Rat A2A receptor was 88%.

As to `CC(O)(CN1CCN(c2cc3nc(-c4ccco4)nn3c(N)n2)CC1)c1ccccc1` (stereo not shown) [Compound 3, 5-Amino-2-(2-furyl)-7-(4-(2-hydroxy-2-phenylpropyl)piperazinyl)[1,2,4]triazolo[1,5-c]pyrimidine], the melting point fell in the range of 267 to 268 °C. For the same compound, the “Rat A2A receptor inhibition ratio (%)” value at Rat A2A receptor stood at 93%.

In the case of `CCC(C)(O)CN1CCN(c2cc3nc(-c4ccco4)nn3c(N)n2)CC1` (stereo not shown) [Compound 2, 5-Amino-2-(2-furyl)-7-(4-(2-hydroxy-2-methylbutyl)piperazinyl)[1,2,4]triazolo[1,5-c]pyrimidine], the melting point stood at 212 °C. On Rat A2A receptor, the “Rat A2A receptor inhibition ratio (%)” value was 84%.

In the case of `Cc1nocc1CN1CCN(c2cc3nc(-c4ccco4)nn3c(N)n2)CC1` [Compound 24, 5-Amino-2-(2-furyl)-7-(4-(3-methylisoxazol-4-ylmethyl)piperazinyl)[1,2,4]triazolo[1,5-c]pyrimidine], the “Rat A2A receptor inhibition ratio (%)” value at Rat A2A receptor came to 96%. Also, in data set [1], the inhibition in vivo at 10 mg/kg stood at 96% and the Total score is 2. Besides, in data set [2], the “Remission ratio (%)” value was 72% and the Total score was 14.

The compound `Nc1nc(N2CCN(Cc3ccc4c(c3)OCC(=O)N4)CC2)cc2nc(-c3ccco3)nn12` [Compound 26, 5-Amino-2-(2-furyl)-7-(4-(3-oxo-3,4-dihydro-2H-benzo[1,4]oxazin-7-ylmethyl)piperazinyl)[1,2,4]triazolo[1,5-c]pyrimidine] displayed a melting point of 287 to 288 °C. The “Rat A2A receptor inhibition ratio (%)” value on Rat A2A receptor is reported as 94%.

In turn, `Nc1nc(N2CCN(Cc3cn4cccnc4n3)CC2)cc2nc(-c3ccco3)nn12` [Compound 17, 5-Amino-2-(2-furyl)-7-(4-(imidazo[1,2-a]pyrimidin-2-ylmethyl)piperazinyl)[1,2,4]triazolo[1,5-c]pyrimidine] had a melting point of 244 to 246 °C. On Rat A2A receptor, the “Rat A2A receptor inhibition ratio (%)” value was 90%.

`CC(O)(CCN1CCN(c2cc3nc(-c4ccco4)nn3c(N)n2)CC1)c1ccccc1` (stereo not shown) [Compound 9, 5-Amino-2-(2-furyl)-7-(4-(3-hydroxy-3-phenylbutyl)piperazinyl)[1,2,4]triazolo[1,5-c]pyrimidine]: the melting point was 123 to 124 °C. On Rat A2A receptor, the “Rat A2A receptor inhibition ratio (%)” value turned out to be 89%.

In the case of `CC(C)(O)CCCCN1CCN(c2cc3nc(-c4ccco4)nn3c(N)n2)CC1` [Compound 14, 5-Amino-2-(2-furyl)-7-(4-(5-hydroxy-5-methylhexyl)piperazinyl)[1,2,4]triazolo[1,5-c]pyrimidine], in data set [1], the inhibition in vivo at 10 mg/kg turned out to be 82% and the Total score came to 9. Also, in data set [2], the “Remission ratio (%)” value was found to be 76% and the Total score is listed as 12.

As for `Cc1cc(C(C)N2CCN(c3cc4nc(-c5ccco5)nn4c(N)n3)CC2)no1` (stereo not shown) [Compound 23, 5-Amino-2-(2-furyl)-7-(4-(1-(5-methylisoxazol-3-yl)ethyl)piperazinyl)[1,2,4]triazolo[1,5-c]pyrimidine], the “Rat A2A receptor inhibition ratio (%)” value on Rat A2A receptor is reported as 75%.

Compound `Nc1nc(N2CCN(Cc3nc4ccccc4[nH]3)CC2)cc2nc(-c3ccco3)nn12` [Compound 18, 5-Amino-7-(4-(benzimidazol-2-ylmethyl)piperazinyl)-2-(2-furyl)[1,2,4]triazolo[1,5-c]pyrimidine] yielded a melting point of 284 to 286 °C. The “Rat A2A receptor inhibition ratio (%)” value at Rat A2A receptor came out at 96%.

For `Nc1nc(N2CCN(Cc3nc4ccccc4s3)CC2)cc2nc(-c3ccco3)nn12` [Compound 19, 5-Amino-7-(4-(benzothiazol-2-ylmethyl)piperazinyl)-2-(2-furyl)[1,2,4]triazolo[1,5-c]pyrimidine], the “Rat A2A receptor inhibition ratio (%)” value on Rat A2A receptor was 95%. For the same compound, in data set [1], the inhibition in vivo at 10 mg/kg was 90% and the Total score came out at 5. Further, in data set [2], the “Remission ratio (%)” value stood at 62% and the Total score is recorded as 19.

In the case of `Nc1nc(N2CCN(Cc3ccc4nsnc4c3)CC2)cc2nc(-c3ccco3)nn12` [Compound 20, 5-Amino-7-(4-(benzo-2,1,3-thiadiazol-5-ylmethyl)piperazinyl)-2-(2-furyl)[1,2,4]triazolo[1,5-c]pyrimidine], in data set [1], the inhibition in vivo at 10 mg/kg turned out to be 90% and the Total score turned out to be 5.

`COC(C)(C)CN1CCN(c2cc3nc(-c4ccco4)nn3c(N)n2)CC1` [Compound 6, 5-Amino-2-(2-furyl)-7-(4-(2-methoxy-2-methylpropyl)piperazinyl)[1,2,4]triazolo[1,5-c]pyrimidine]: in data set [1], the inhibition in vivo at 10 mg/kg came out at 84% and the Total score was found to be 8. Further, in data set [2], the “Remission ratio (%)” value was determined as 78% and the Total score was determined as 11.

(Values after patent US6545000B1, “[1,2,4]triazolo[1,5-c]pyrimidine derivatives” (Kyowa Hakko Kogyo Co., Ltd., priority 1998, dated 2003).)
